The numbers were not newly measured in patent US20120082623A1, “SHH Regulation and Methods Thereof” (priority 2009, published 2012), which cites them from elsewhere.

One data set concerns ALS patients. Particulars: cited from earlier work.
Data set [1] addresses T1, GDNF family receptor (GFR)α1 (Mus musculus, UniProt P97785).
T1 construct: host or cells: Neuro-2A cells
T1 sequence (P97785 25-430): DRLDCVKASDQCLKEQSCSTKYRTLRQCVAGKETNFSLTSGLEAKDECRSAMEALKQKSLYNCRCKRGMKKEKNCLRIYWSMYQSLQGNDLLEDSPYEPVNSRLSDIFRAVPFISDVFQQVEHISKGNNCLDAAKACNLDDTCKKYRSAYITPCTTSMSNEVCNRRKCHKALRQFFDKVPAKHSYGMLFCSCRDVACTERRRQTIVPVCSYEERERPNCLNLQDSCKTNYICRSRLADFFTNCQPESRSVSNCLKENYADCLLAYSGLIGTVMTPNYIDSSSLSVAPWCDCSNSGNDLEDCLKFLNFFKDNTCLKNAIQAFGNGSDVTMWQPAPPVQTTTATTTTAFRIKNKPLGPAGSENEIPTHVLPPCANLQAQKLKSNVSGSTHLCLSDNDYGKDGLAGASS
Particulars: Neuro-2A cells; cited from earlier work.

For the next data set, the system named is SVZ derived EGFR+ cells. Particulars: neurospheres, dose dependent manner; cited from earlier work.

On to `Nc1nc2ccc(OC(F)(F)F)cc2s1` [Riluzole], for which the measures of function entry in the data set with ALS patients was “has not been shown to have significant effect on measures of function”. As for `CCN(CC)CCCC(C)Nc1cc(/C=C/c2ccccc2Cl)nc2cc(Cl)ccc12` (stereo not drawn) [XIB4035], the neurotrophic effects result in data set [1] was “mimics the neurotrophic effects of GDNF”. For `NCCc1ccc(O)c(O)c1` [dopamine], in the data set with SVZ derived EGFR+ cells, the “proliferation of SVZ derived EGFR+ cells” value is recorded as “increased the proliferation of SVZ derived EGFR+ cells”.
